Test results: US20140023611A1 (priority 2010, published 2014)

How the values were obtained:
[1] = Determination of compound Cmax and AUC after oral gavage (plasma LC-MS/MS); format: in vivo, Sprague-Dawley rats; conditions: Sprague-Dawley, rat, plasma, po, Structure (I) examples, Table 15, actual oral dose 3-15 mg/kg, plasma 0.5-4 h
Procedure, shortened: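 Sprague-Dawley rats dosed by oral gavage at nominal 2.5 or 10 mg/kg; blood drawn at 0.5, 1, 2 and 4 h into K2EDTA. Plasma protein-precipitated with acetonitrile plus internal standard and analysed by LC-MS/MS against a plasma standard curve to derive Cmax and AUC.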

[2] = Stability of compounds in simulated intestinal fluid (SIF); format: in vitro ADME; conditions: simulated intestinal fluid (3 mg/mL pancreatin), incubation time 6 hr, relative to t=0
Experimental: (§1) Test compounds were incubated at […] in simulated gastric fluid (SGF; standard USP solution with 3 mg/mL pepsin) or simulated intestinal fluid (SIF; standard USP solution with 3 mg/mL pancreatin) for 3 hr or 6 hr. HPLC-UV or HPLC-MS were used to determine test compound levels using peak area %. Results (Table 14) were reported as the percentage of test compound remaining after incubation in a given condition relative to test compound present at t=0 in the same condition.

[3] = Stability of compounds in simulated gastric fluid (SGF); format: in vitro ADME; conditions: simulated gastric fluid (3 mg/mL pepsin), incubation time 6 hr, relative to t=0
Experimental: as §1

[4] = biological target: T1, rat NaP2b (SLC34A2) (Rattus norvegicus, UniProt Q9JJ09); test: Inhibition of NaP2b-mediated Pi (33P) uptake in transfected HEK293 cells, rat NaP2b; format: cell-based; conditions: 33P Pi uptake, 0.1 mM phosphate, value given as pIC50 range
T1 construct: host or cells: HEK293
T1 sequence (Q9JJ09 1-695): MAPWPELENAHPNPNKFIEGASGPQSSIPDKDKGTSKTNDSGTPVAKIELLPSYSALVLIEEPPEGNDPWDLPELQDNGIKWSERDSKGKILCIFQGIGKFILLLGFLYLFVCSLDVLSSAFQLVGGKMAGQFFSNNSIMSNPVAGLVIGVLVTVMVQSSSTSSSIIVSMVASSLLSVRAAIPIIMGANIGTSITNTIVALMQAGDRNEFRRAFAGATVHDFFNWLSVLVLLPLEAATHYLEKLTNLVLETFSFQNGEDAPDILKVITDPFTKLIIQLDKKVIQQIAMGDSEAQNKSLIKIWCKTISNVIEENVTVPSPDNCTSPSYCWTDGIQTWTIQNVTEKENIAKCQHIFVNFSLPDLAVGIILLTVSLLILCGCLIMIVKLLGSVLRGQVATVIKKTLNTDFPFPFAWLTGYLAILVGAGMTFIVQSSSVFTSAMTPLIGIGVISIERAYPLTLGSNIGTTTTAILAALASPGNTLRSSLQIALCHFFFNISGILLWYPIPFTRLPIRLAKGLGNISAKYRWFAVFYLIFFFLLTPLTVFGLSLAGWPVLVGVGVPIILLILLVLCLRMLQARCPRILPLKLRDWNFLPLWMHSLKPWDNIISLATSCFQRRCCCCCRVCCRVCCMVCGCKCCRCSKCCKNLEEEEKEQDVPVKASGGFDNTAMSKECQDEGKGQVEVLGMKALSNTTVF
Procedure, shortened: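 HEK293 cells were transiently transfected with NaP2b cDNA using Lipofectamine and grown near confluence. Compounds were tested at twelve concentrations from 0.1 nM to 30 uM in duplicate, and 33P-phosphate uptake was counted by scintillation after lysis. Results are expressed as pIC50.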

Compound	AUC [1]	Cmax [1]	% remaining, SIF [2]	% remaining, SGF [3]	IC50 [4]
O=C(CCOCCOCCOCCOCCSCc1cccc(C(=O)Nc2ccc(N3CCCCC3)cc2-c2cc(C(=O)NCc3cccc(C(F)(F)F)c3)ccn2)c1)NCCN1CCOCC1 [Example 146, 2-(2-(3-(20-morpholino-17-oxo-5,8,11,14-tetraoxa-2-thia-18-azaicosyl)benzamido)-5-(piperidin-1-yl)phenyl)-N-(3-(trifluoromethyl)benzyl)isonicotinamide]	< 10 ng·h/mL	< 10 ng/mL	60-80%	>80%	1 to 7.94 µM
COCCN(C)C(=O)N1CCN(CCN(C)Cc2cccc(C(=O)Nc3ccc(N4CCCCC4)cc3-c3cc(C(=O)NCc4cccc(C(F)(F)F)c4)ccn3)n2)CC1 [Example 210, N-(2-methoxyethyl)-N-methyl-4-(2-(methyl((6-(4-(piperidin-1-yl)-2-(4-(3-(trifluoromethyl)benzylcarbamoyl)pyridin-2-yl)phenylcarbamoyl)pyridin-2-yl)methyl)amino)ethyl)piperazine-1-carboxamide]	< 30 ng·h/mL	< 10 ng/mL	>80%	>80%	10 to 31.6 µM
CN(CCN1CCC[C@H]1C(=O)N(C)CCOCCOCCOCCC(=O)O)C(=O)c1cccc(C(=O)Nc2ccc(N3CCCCC3)cc2-c2cc(C(=O)N[C@H]3CCCc4ccccc43)ccn2)c1 [Example 191, 2-Methyl-1-((S)-1-(2-(N-methyl-3-((4-(piperidin-1-yl)-2-(4-(((S)-1,2,3,4-tetrahydronaphthalen-1-yl)carbamoyl)pyridin-2-yl)phenyl)carbamoyl)benzamido)ethyl)pyrrolidin-2-yl)-1-oxo-5,8,11-trioxa-2-azatetradecan-14-oic acid]	< 10 ng·h/mL	< 10 ng/mL	>80%	>80%	10 to 31.6 µM
CN(CCOCCOCCOCCC(=O)O)C(=O)c1cccc(C(=O)Nc2ccc(Cl)cc2-c2cc(C(=O)NCc3cccc(C(F)(F)F)c3)ccn2)c1 [Example 238, 3-{2-[2-(2-{1-[3-({4-chloro-2-[4-({[3-(trifluoromethyl)phenyl]methyl}carbamoyl)pyridin-2-yl]phenyl}carbamoyl)phenyl]-N-methylformamido}ethoxy)ethoxy]ethoxy}propanoic acid]	< 10 ng·h/mL	< 10 ng/mL	>80%	>80%	10 to 31.6 µM
CCN(CC)c1ccc(NC(=O)c2cccc(CSCCOCCOCCOCCOCCC(=O)NCCOCCOCCOCCOCCOCCOCCOCCOC)c2)c(-c2cc(C(=O)NCc3cccc(C(F)(F)F)c3)ccn2)c1 [Example 165, 2-(5-(diethylamino)-2-(3-(27-oxo-2,5,8,11,14,17,20,23,30,33,36,39-dodecaoxa-42-thia-26-azatritetracontan-43-yl)benzamido)phenyl)-N-(3-(trifluoromethyl)benzyl)isonicotinamide]	< 30 ng·h/mL	< 10 ng/mL	>80%	>80%	1 to 7.94 µM
COCCOCCOCCOCCOCCOCCOCCN(C)C(=O)[C@H]1CCCN(C(=O)c2cccc(C(=O)Nc3ccc(N4CCCCC4)cc3-c3cc(C(=O)N[C@H]4CCCc5ccccc54)ccn3)c2)C1 [Example 255, 2-(2-(3-((S)-3-(2,5,8,11,14,17,20-heptaoxadocosan-22-yl(methyl)carbamoyl)piperidine-1-carbonyl)benzamido)-5-(piperidin-1-yl)phenyl)-N—((S)-1,2,3,4-tetrahydronaphthalen-1-yl)isonicotinamide]	< 10 ng·h/mL	< 10 ng/mL	>80%	>80%	1 to 7.94 µM

Other lines, results leading:

AUC [1]	Cmax [1]	% remaining, SIF [2]	% remaining, SGF [3]	IC50 [4]	Compound
< 10 ng·h/mL	< 10 ng/mL	>80%	>80%	1 to 7.94 µM	CCN(CC)CCN(C)C(=O)CCOCCOCCOCCOCCSCc1cccc(C(=O)Nc2ccc(N3CCCCC3)cc2-c2cc(C(=O)NCc3cccc(C(F)(F)F)c3)ccn2)c1 [Example 152, 2-(2-(3-(21-ethyl-18-methyl-17-oxo-5,8,11,14-tetraoxa-2-thia-18,21-diazatricosyl)benzamido)-5-(piperidin-1-yl)phenyl)-N-(3-(trifluoromethyl)benzyl)isonicotinamide]
< 10 ng·h/mL	< 10 ng/mL	>80%	>80%	10 to 31.6 µM	CN(CCOCCOCCOCCC(=O)O)C(=O)c1cccc(C(=O)Nc2ccc(N3CCCCC3)cc2-c2cc(C(=O)NCc3cccc(C(F)(F)F)c3)ccn2)c1 [Example 248, 3-[2-(2-{2-[N-methyl-1-(3-{[4-(piperidin-1-yl)-2-[4-({[3-(trifluoromethyl)phenyl]methyl}carbamoyl)pyridin-2-yl]phenyl}carbamoyl}phenyl)formamido]ethoxy}ethoxy)ethoxy]propanoic acid]
< 10 ng·h/mL	< 10 ng/mL	>80%	>80%	1 to 7.94 µM	O=C(CCOCCOCCOCCOCCSCc1cccc(C(=O)Nc2ccc(N3CCCCC3)cc2-c2cc(C(=O)NCc3cccc(C(F)(F)F)c3)ccn2)c1)NCCOCCOCCOCCOCCOCCOCCOCCO [Example 149, 2-(2-(3-(41-hydroxy-17-oxo-5,8,11,14,21,24,27,30,33,36,39-undecaoxa-2-thia-18-azahentetracontyl)benzamido)-5-(piperidin-1-yl)phenyl)-N-(3-(trifluoromethyl)benzyl)isonicotinamide]
< 50 ng·h/mL	< 30 ng/mL	>80%	>80%	< 1 µM	CCN(CC)c1ccc(NC(=O)c2cccc(C(=O)N(C)CCN3CCOCC3)c2)c(-c2cc(C(=O)N[C@H]3CCCc4ccccc43)ccn2)c1 [Example 131, (S)—N^1-(4-(diethylamino)-2-(4-((1,2,3,4-tetrahydronaphthalen-1-yl)carbamoyl)pyridin-2-yl)phenyl)-N^3-methyl-N^3-(2-morpholinoethyl)isophthalamide]
< 10 ng·h/mL	< 10 ng/mL	>80%	>80%	10 to 31.6 µM	CN(CCN1CCOCC1)C(=O)CCOCCOCCOCCOCCSCc1cccc(C(=O)Nc2ccc(N3CCCCC3)cc2-c2cc(C(=O)NCc3cccc(C(F)(F)F)c3)ccn2)c1 [Example 150, 2-(2-(3-(18-methyl-20-morpholino-17-oxo-5,8,11,14-tetraoxa-2-thia-18-azaicosyl)benzamido)-5-(piperidin-1-yl)phenyl)-N-(3-(trifluoromethyl)benzyl)isonicotinamide]
< 30 ng·h/mL	< 30 ng/mL	60-80%	>80%	1 to 7.94 µM	COCCN(C)C(=O)N1CCN(CCN(C)Cc2cccc(C(=O)Nc3ccc(N4CCCCC4)cc3-c3cc(C(=O)NCc4cccc(C(F)(F)F)c4)ccn3)c2)CC1 [Example 209, N-(2-methoxyethyl)-N-methyl-4-(2-(methyl(3-(4-(piperidin-1-yl)-2-(4-(3-(trifluoromethyl)benzylcarbamoyl)pyridin-2-yl)phenylcarbamoyl)benzyl)amino)ethyl)piperazine-1-carboxamide]
